In general, DC50 refers to the midpoint of the concentration-degradation curve. Lower therefore signals a more potent degrader.

Our source for the DC50 values is patent publication US20250074890A1, “CYANOPYRIDINE AND CYANOPYRIMIDINE BCL6 DEGRADERS” (DANA-FARBER CANCER INSTITUTE, INC., priority 2021, published 2025).

In the assay the target is T1, BCL6 (Homo sapiens, UniProt P41182).
T1 construct: Endogenous BCL6 was tagged with the 11-amino acid SmBiT through CRISPR/Cas9 gene editing; endogenous in cells; host or cells: Su-DHL-4 (CRISPR/Cas9 knock-in, single cell clone)
The experiment in a line: HiBiT cellular degradation assay in Su-DHL-4 cells. It is filed as cell-based. Particulars: concentration to reach 50% degradation of endogenous SmBiT-tagged BCL6, 24 hours of compound treatment. Here is the method:
DC50 (concentration to reach 50% degradation) values were determined from a cellular degradation assay (HiBiT, Promega™) in Su-DHL-4 cells (Table 1). Endogenous BCL6 was tagged with the 11-amino acid SmBiT through CRISPR/Cas9 gene editing and single cell clone selection. After 24 hours of compound treatment, cells were lysed and incubated with LgBiT protein to reconstitute intact nanoluciferase. Substrate was then added and relative luciferase units were measured. Degradation levels for each treatment were taken as a percentage compared to the control, 100% DMSO (Prism).

The compound `C[C@H]1C[C@@H](N)CN(c2nc(Nc3ccc4c(c3)c3c(c(=O)n4C)OCC(F)(F)[C@H](C4CC4)N3)c(Cl)cc2C#N)C1` (single isomer, unassigned) [Compound 24] registered a DC50 of 30 nM.

With `CNC(=O)COc1cc2cc(Nc3nc(N4C[C@@H](N)C(F)(F)[C@@H](C)C4)c(C#N)cc3Cl)ccc2n(CC2COC2)c1=O` (single isomer, unassigned) [Compound 42], the 50% degradation concentration (DC50) turned out to be 71 nM. With `C[C@H]1CN(c2nc(Nc3ccc4c(c3)n(CCC(C)(C)O)c(=O)n4C)c(Cl)cc2C#N)C[C@@H](N)C1(F)F` (single isomer, unassigned) [Compound 49], the DC50 is more than 400 nM. In turn, `C[C@H]1CN(c2nc(Nc3ccc4c(c3)n(CCC(C)(C)O)c(=O)n4C)c(F)cc2C#N)C[C@@H](O)C1(F)F` (single isomer, unassigned) [Compound 83] yielded a DC50 of more than 400 nM. `CNC(=O)COc1cc2cc(Nc3nc(N4C[C@@H](C)C(F)(F)[C@@H](C)C4)c(C#N)cc3Cl)ccc2n(C)c1=O` [Compound 2, 2-((6-((3-Chloro-5-cyano-6-((3S,5R)-4,4-difluoro-3,5-dimethylpiperidin-1-yl)pyridin-2-yl)amino)-1-methyl-2-oxo-1,2-dihydroquinolin-3-yl)oxy)-N-methylacetamide] came in with a DC50 of 6 nM. The compound `CNC(=O)COc1cc2cc(Nc3ncc(C#N)c(N4C[C@H](CCO)C(F)(F)[C@H](C)C4)n3)ccc2n(C)c1=O` [Compound 3, 2-((6-((5-Cyano-4-((3S,5R)-4,4-difluoro-3-(2-hydroxyethyl)-5-methylpiperidin-1-yl)pyrimidin-2-yl)amino)-1-methyl-2-oxo-1,2-dihydroquinolin-3-yl)oxy)-N-methylacetamide] showed a DC50 of 3 nM. The same measure for `CNC(=O)COc1cc2cc(Nc3nc(N4C[C@@H](C)C(F)(F)[C@@H](C)C4)c(C#N)cc3Cl)ccc2n(CC2CCO2)c1=O` (stereo partly drawn) [Compound 6, 2-((6-((3-Chloro-5-cyano-6-((3R,5S)-4,4-difluoro-3,5-dimethylpiperidin-1-yl)pyridin-2-yl)amino)-1-(oxetan-2-ylmethyl)-2-oxo-1,2-dihydroquinolin-3-yl)oxy)-N-methylacetamide]: 13 nM. `CNC(=O)COc1cc2cc(Nc3nc(N4C[C@@H](C)C(F)(F)[C@@H](C)C4)c(C#N)cc3Cl)ccc2n(CC2COC2)c1=O` [Compound 7, 2-((6-((3-chloro-5-cyano-6-((3R,5S)-4,4-difluoro-3,5-dimethylpiperidin-1-yl)pyridin-2-yl)amino)-1-(oxetan-3-ylmethyl)-2-oxo-1,2-dihydroquinolin-3-yl)oxy)-N-methylacetamide] showed a DC50 of 5 nM. `C[C@@H]1CN(c2nc(Nc3ccc4c(c3)cc(OCC3(C)COC3)c(=O)n4C)c(Cl)cc2C#N)C[C@H](C)C1(F)F` [Compound 9, 5-Chloro-2-((3R,5S)-4,4-difluoro-3,5-dimethylpiperidin-1-yl)-6-((1-methyl-3-((3-methyloxetan-3-yl)methoxy)-2-oxo-1,2-dihydroquinolin-6-yl)amino)nicotinonitrile] showed a DC50 of more than 400 nM. `CNC(=O)COc1cc2cc(Nc3nc(N4C[C@@H](C)C(F)(F)[C@@H](C)C4)c(C#N)cc3Cl)ccc2n(CCN(C)C)c1=O` [Compound 11, 2-((6-((3-Chloro-5-cyano-6-((3R,5S)-4,4-difluoro-3,5-dimethylpiperidin-1-yl)pyridin-2-yl)amino)-1-(2-(dimethylamino)ethyl)-2-oxo-1,2-dihydroquinolin-3-yl)oxy)-N-methylacetamide] had a DC50 of 2 nM. The same measure for `CNC(=O)COc1cc2cc(Nc3nc(N4C[C@@H](C)C(F)(F)[C@@H](C)C4)c(C#N)cc3Cl)ccc2n(CCCO)c1=O` [Compound 18, 2-((6-((3-Chloro-5-cyano-6-((3R,5S)-4,4-difluoro-3,5-dimethylpiperidin-1-yl)pyridin-2-yl)amino)-1-(3-hydroxypropyl)-2-oxo-1,2-dihydroquinolin-3-yl)oxy)-N-methylacetamide]: 5 nM.
